Measured values published in patent publication US8101774B2, “Ester derivatives and medicinal use thereof” (Japan Tobacco Inc., priority 2004, dated 2012).

What follows are compounds tested against T1, Microsomal triglyceride transfer protein (MTP) from human small intestine microsome (Homo sapiens, UniProt P55157) (assay: Inhibition test of interliposomal triglyceride (TG) transfer activity by MTP). Settings: purified MTP from human small intestine microsome, 37° C., 1.5 hours.
T1 construct: Human small intestine microsome was dialyzed against 10 mM phosphate buffer; tissue Tissue Transforming Technologies, Inc; host or cells: human small intestine microsome
T1 sequence (P55157 19-894): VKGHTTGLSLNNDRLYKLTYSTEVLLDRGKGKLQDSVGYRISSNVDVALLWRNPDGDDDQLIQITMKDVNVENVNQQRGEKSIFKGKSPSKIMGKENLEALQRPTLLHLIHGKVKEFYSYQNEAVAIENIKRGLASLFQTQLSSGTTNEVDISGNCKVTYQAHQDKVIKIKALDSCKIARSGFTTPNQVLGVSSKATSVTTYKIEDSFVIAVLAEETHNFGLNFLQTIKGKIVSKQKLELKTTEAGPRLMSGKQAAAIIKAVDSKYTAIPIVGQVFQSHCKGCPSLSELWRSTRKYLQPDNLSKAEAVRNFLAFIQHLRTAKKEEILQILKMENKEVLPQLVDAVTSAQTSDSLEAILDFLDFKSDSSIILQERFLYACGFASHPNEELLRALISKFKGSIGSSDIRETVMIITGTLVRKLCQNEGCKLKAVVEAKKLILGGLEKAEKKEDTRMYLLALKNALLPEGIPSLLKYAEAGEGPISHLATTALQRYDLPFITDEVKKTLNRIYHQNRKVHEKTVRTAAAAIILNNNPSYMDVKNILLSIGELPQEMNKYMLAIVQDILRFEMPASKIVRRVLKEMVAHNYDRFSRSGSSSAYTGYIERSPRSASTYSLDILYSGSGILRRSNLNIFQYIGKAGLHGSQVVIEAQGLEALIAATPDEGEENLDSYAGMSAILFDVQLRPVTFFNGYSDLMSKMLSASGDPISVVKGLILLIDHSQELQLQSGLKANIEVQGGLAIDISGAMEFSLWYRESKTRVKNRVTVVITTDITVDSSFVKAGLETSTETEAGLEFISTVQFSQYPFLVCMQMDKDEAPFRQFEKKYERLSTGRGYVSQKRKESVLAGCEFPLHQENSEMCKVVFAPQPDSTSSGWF
T1 sequence (P07237 18-508 partner): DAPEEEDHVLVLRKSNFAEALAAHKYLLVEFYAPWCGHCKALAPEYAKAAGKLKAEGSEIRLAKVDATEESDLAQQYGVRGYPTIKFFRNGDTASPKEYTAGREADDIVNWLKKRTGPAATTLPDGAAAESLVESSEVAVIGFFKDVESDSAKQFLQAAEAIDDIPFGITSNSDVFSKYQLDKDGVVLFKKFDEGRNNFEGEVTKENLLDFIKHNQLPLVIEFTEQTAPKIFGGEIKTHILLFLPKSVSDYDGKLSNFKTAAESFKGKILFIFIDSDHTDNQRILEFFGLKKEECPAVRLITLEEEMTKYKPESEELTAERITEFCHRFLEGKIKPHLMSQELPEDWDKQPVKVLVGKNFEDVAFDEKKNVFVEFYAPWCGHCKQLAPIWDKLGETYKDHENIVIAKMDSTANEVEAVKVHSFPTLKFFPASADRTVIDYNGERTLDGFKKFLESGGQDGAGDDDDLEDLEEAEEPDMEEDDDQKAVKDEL
Format: biochemical
Experimental: Microsomal triglyceride transfer protein (MTP) from human small intestine microsome (manufactured by Tissue Transforming Technologies, Inc.) was purified in such a way described below. Human small intestine microsome was dialyzed against 10 mM phosphate buffer (300 mL, pH 6.8) twice for about 2 hours and once for further not less than 12 hours, at about 4° C. After dialysis, the mixture was centrifuged at 4° C. and 15,000×g for 5 minutes and then the supernatant was recovered. The previously recovered supernatant was purified by column chromatography on diethylaminoethyl (DEAE) Sepharose using FPLC (Fast Performance Liquid Chromatography) system, and the purified MTP was used for the test as described below.
Small unilamellar-vesicle (SUV) liposome (hereinafter described as donor, containing 0.25% (mol/mol) triolein and 5% (mol/mol) cardiolipin) constituted by triolein labeled with ^14C and non-labeled SUV liposome (hereinafter described as acceptor, containing […] triolein) were prepared in such a way described below.
Firstly, in order to prepare the donor, there were volatilized under a stream of nitrogen gas a phosphatidylcholine solution containing phosphatidylcholine labeled with ^3H, a cardiolipin solution, and a triolein solution containing triolein labeled with ^14C (each solution had been already dissolved in an appropriate organic solvent), or in order to prepare the acceptor, there were volatilized under nitrogen flow a phosphatidylcholine solution containing phosphatidylcholine labeled with ^3H and a cardiolipin solution (each solution had been already dissolved in an appropriate organic solvent). An appropriate amount of a reaction buffer (15 mM Tris-HCl buffer containing 1 mM EDTA.Na2, 40 mM NaCl, and 0.5% (w/v) bovine serum albumin, pH 7.4) was added thereto to be emulsified. The emulsions were treated with ultrasonication under ice-cooling and centrifuged at 4° C. and 159,000×g for 2 hours. Each of the resulting supernatant was used for donor or acceptor.
Each radioactivity in the acceptor and the donor was measured by liquid scintillation counter, and a mixed solution of the acceptor and the donor was prepared with a reaction buffer so as to be a donor-derived radioactivity of 16,000 dpm/400 μL and a acceptor-derived radioactivity of 4,000 dpm/[…]. 400 μL of the mixed solution of the donor and the acceptor, 45 μL of the reaction buffer, 50 μL of MTP (20 μg/mL), and 5 μL of a sample dissolved in DMSO (dimethyl sulfoxide) or 5 μL of DMSO was mixed (total amount: 500 μL). The mixture was incubated at 37° C. for 1.5 hours. After completion of the incubation, 1.25 mL of a suspension of DEAE cellulose (66.7% (v/v)) in 15 mM Tris-HCl buffer (pH 7.4) containing 1 mM EDTA.Na2 was added to the above solution. The mixture was centrifuged to separate the donor (adsorbed on the DEAE cellulose to precipitate) and the acceptor (the supernatant). The radioactivity in the acceptor was measured by liquid scintillation counter. The value obtained by subtracting the radioactivity in a blank group from the radioactivity in the acceptor of a DMSO group was determined as MTP-mediated TG transfer activity, and it was compared with the value obtained by subtracting the radioactivity in the blank group from the radioactivity in a sample group. Here, the blank was prepared by adding 10 mM phosphate buffer (pH 6.8) containing 250 mM NaCl in place of MTP. Inhibition rate (%) was calculated from values obtained according to the following equation. Inhibition rate(%)=(1 minus((radioactivity of sample group minus radioactivity of blank group)/(radioactivity of DMSO group minus radioactivity of blank group)))×100.
50% Inhibition rate (IC50) was determined on the basis of the above equation.
With `COC(=O)c1cc(OC)c(OC(=O)CCCc2ccc(NC(=O)c3ccc(C)nc3-c3ccc(C(F)(F)F)cc3)c(C(=O)N(C)C)c2)c(C(=O)OC)c1` [Compound 1-53, 4-[4-(3-dimethylcarbamoyl-4-{[6-methyl-2-(4-trifluoromethylphenyl)pyridine-3-carbonyl]amino}phenyl)butyryloxy]-5-methoxyisophthalic acid dimethyl ester] the IC50 was under 10 nM.
`CN(C)C(=O)c1cc(CCCC(=O)Oc2ccc(C(=O)OCc3ccc(Cl)cc3)cc2)ccc1NC(=O)c1ccccc1-c1ccc(C(F)(F)F)cc1` [Compound 1-79, 4-[4-(3-dimethylcarbamoyl-4-{(4′-trifluoromethylbiphenyl-2-carbonyl)amino}phenyl)butyryloxy]benzoic acid 4-chlorobenzyl ester] showed an IC50 of under 10 nM.
With `CCOC(=O)c1ccc(OC(=O)CCCc2ccc(NC(=O)c3ccccc3-c3ccc(C(F)(F)F)cc3)c(C(=O)N3CCCC3)c2)c(F)c1` [Compound 1-16, 3-fluoro-4-(4-{3-(pyrrolidine-1-carbonyl)-4-[(4′-trifluoromethylbiphenyl-2-carbonyl)amino]phenyl}butyryloxy)benzoic acid ethyl ester] the IC50 was under 10 nM.
In the case of `CN(C)C(=O)c1cc(CCCC(=O)Oc2ccc(-c3nnn(C)n3)cc2)ccc1NC(=O)c1ccccc1-c1ccc(C(F)(F)F)cc1` [Compound 1-95, 4-(3-dimethylcarbamoyl-4-{(4′-trifluoromethylbiphenyl-2-carbonyl)amino}phenyl)butyric acid 4-(2-methyl-2H-tetrazol-5-yl)phenyl ester], the IC50 is reported as under 10 nM.
For `CN(C)C(=O)c1cc(CCCC(=O)Oc2ccc(C(=O)OCc3ccc(C(=O)OC(C)(C)C)cc3)cc2)ccc1NC(=O)c1ccccc1-c1ccc(C(F)(F)F)cc1` [Compound 1-103, 4-[4-(3-dimethylcarbamoyl-4-{(4′-trifluoromethylbiphenyl-2-carbonyl)amino}phenyl)butyryloxy]benzoic acid 4-(t-butoxycarbonyl)benzyl ester], the IC50 was under 10 nM.
Work on `CN(C)C(=O)c1cc(CCCC(=O)Oc2ccc(C(=O)OCCCO)cc2)ccc1NC(=O)c1ccccc1-c1ccc(C(F)(F)F)cc1` [Compound 1-92, 4-[4-(3-dimethylcarbamoyl-4-{(4′-trifluoromethylbiphenyl-2-carbonyl)amino}phenyl)butyryloxy]benzoic acid 3-hydroxypropyl ester] yielded an IC50 of under 10 nM.
“3-chloro-4-[4-(3-dimethylcarbamoyl-4-{[6-methyl-2-(4-trifluoromethylphenyl)pyridine-3-carbonyl]amino}phenyl)butyryloxy]-5-methoxybenzoic acid methyl ester sulfonate [Compound 1-56]” showed an IC50 of under 10 nM.
`CN(C)C(=O)COC(=O)c1ccc(OC(=O)CCCc2ccc(NC(=O)c3ccccc3-c3ccc(C(F)(F)F)cc3)c(C(=O)N(C)C)c2)cc1` [Compound 1-85, 4-[4-(3-dimethylcarbamoyl-4-{(4′-trifluoromethylbiphenyl-2-carbonyl)amino}phenyl)butyryloxy]benzoic acid dimethylcarbamoylmethyl ester] gave an IC50 of under 10 nM.
`CCOC(=O)c1cc(OC)c(OC(=O)CCCc2ccc(NC(=O)c3ccc(C)nc3-c3ccc(C(F)(F)F)cc3)c(C(=O)N(C)C)c2)c(C(=O)OC)c1` [Compound 1-54, 4-[4-(3-dimethylcarbamoyl-4-{[6-methyl-2-(4-trifluoromethylphenyl)pyridine-3-carbonyl]amino}phenyl)butyryloxy]-5-methoxyisophthalic acid 1-ethyl ester 3-methyl ester] gave an IC50 of under 10 nM.
With `COC(=O)c1ccc(OC(=O)CCCc2ccc(NC(=O)c3ccc(C)nc3-c3ccc(C(F)(F)F)cc3)c(C(=O)N(C)C)c2)cn1` [Compound 1-32, 5-[4-(3-dimethylcarbamoyl-4-{[6-methyl-2-(4-trifluoromethylphenyl)pyridine-3-carbonyl]amino}phenyl)butyryloxy]pyridine-2-carboxylic acid methyl ester] the IC50 was 100 to 1000 nM.
`CN(C)C(=O)c1cc(CCCC(=O)Oc2ccc(C(=O)OCc3ccccc3)cc2)ccc1NC(=O)c1ccccc1-c1ccc(C(F)(F)F)cc1` [Compound 1-24, 4-(4-{3-dimethylcarbamoyl-4-[(4′-trifluoromethylbiphenyl-2-carbonyl)amino]phenyl}butyryloxy)benzoic acid benzyl ester] gave an IC50 of under 10 nM.
`Cc1cccc(COC(=O)c2ccc(OC(=O)CCCc3ccc(NC(=O)c4ccc(C)nc4-c4ccc(C(F)(F)F)cc4)c(C(=O)N(C)C)c3)cc2)n1` [Compound 1-100, 4-[4-(3-dimethylcarbamoyl-4-{[6-methyl-2-(4-trifluoromethylphenyl)pyridine-3-carbonyl]amino}phenyl)butyryloxy]benzoic acid 6-methylpyridin-2-ylmethyl ester] showed an IC50 of under 10 nM.
In the case of `COC(=O)c1cc(C)c(OC(=O)CCCc2ccc(NC(=O)c3ccccc3-c3ccc(C(F)(F)F)cc3)c(C(=O)N(C)C)c2)c(C)c1` [Compound 1-64, 4-[4-(3-dimethylcarbamoyl-4-{(4′-trifluoromethylbiphenyl-2-carbonyl)amino}phenyl)butyryloxy]-3,5-dimethylbenzoic acid methyl ester], the IC50 is reported as under 10 nM.
Work on `COC(=O)c1cc(C)c(OC(=O)CCCc2ccc(NC(=O)c3ccc(C)nc3-c3ccc(C(F)(F)F)cc3)c(C(=O)N(C)C)c2)c(OC)c1` [Compound 1-46, 4-[4-(3-dimethylcarbamoyl-4-{[6-methyl-2-(4-trifluoromethylphenyl)pyridine-3-carbonyl]amino}phenyl)butyryloxy]-3-methoxy-5-methylbenzoic acid methyl ester] yielded an IC50 of under 10 nM.
In the case of `COC(=O)c1ccc(OC(=O)CCCc2ccc(NC(=O)c3ccccc3-c3ccc(C(F)(F)F)cn3)c(C(=O)N(C)C)c2)cc1` [Compound 1-19, 4-(4-{3-dimethylcarbamoyl-4-[2-(5-trifluoromethylpyridin-2-yl)benzoylamino]phenyl}butyryloxy)benzoic acid methyl ester], the IC50 is reported as 10 to 100 nM.
With `CCOC(=O)c1ccc(OC(=O)CCCc2ccc(NC(=O)c3ccc(C)nc3-c3ccc(C(F)(F)F)cc3)c(C(=O)N(C)C)c2)cc1` [Compound 1-71, 4-[4-(3-dimethylcarbamoyl-4-{[6-methyl-2-(4-trifluoromethylphenyl)pyridine-3-carbonyl]amino}phenyl)butyryloxy]benzoic acid ethyl ester] the IC50 was under 10 nM.
`CC(C)OC(=O)COC(=O)c1ccc(OC(=O)CCCc2ccc(NC(=O)c3ccccc3-c3ccc(C(F)(F)F)cc3)c(C(=O)N(C)C)c2)cc1` [Compound 1-102] was tested, and the IC50 was under 10 nM.
`COC(=O)c1cc(C(=O)OC(C)C)cc(C)c1OC(=O)CCCc1ccc(NC(=O)c2ccc(C)nc2-c2ccc(C(F)(F)F)cc2)c(C(=O)N(C)C)c1` [Compound 1-111, 4-[4-(3-dimethylcarbamoyl-4-{[6-methyl-2-(4-trifluoromethylphenyl)pyridine-3-carbonyl]amino}phenyl)butyryloxy]-5-methylisophthalic acid 1-isopropyl ester 3-methyl ester] gave an IC50 of under 10 nM.
`CN(C)C(=O)c1cc(CCCC(=O)Oc2ccc(C(=O)OCc3ccncc3)cc2)ccc1NC(=O)c1ccccc1-c1ccc(C(F)(F)F)cc1` [Compound 1-84, 4-[4-(3-dimethylcarbamoyl-4-{(4′-trifluoremethylbiphenyl-2-carbonyl)amino}phenyl)butyryloxy]benzoic acid pyridin-4-ylmethyl ester] was tested, and the IC50 was under 10 nM.
`COC(=O)c1ccc(OC(=O)CCc2ccc(NC(=O)c3ccccc3-c3ccc(C(F)(F)F)cc3)c(C(=O)N(C)C)c2)cc1` [Compound 1-27, 4-(3-{3-dimethylcarbamoyl-4-[(4′-trifluoromethylbiphenyl-2-carbonyl)amino]phenyl}propionyloxy)benzoic acid methyl ester] gave an IC50 of 10 to 100 nM.
